Assay results from patent US10695315B2, “Composition comprising avermectin compounds without gelling agents” (Nestlé Skin Health SA, priority 2016, dated 2020).

Experiment: Physical stability of the composition over time
Type: physicochemical
Settings: in composition 2, over time (three months, 5° C. and RT)
Experimental: “Physical stability” means that the composition meets the acceptance criteria for appearance, physical attributes and functionality test (e.g. color, phase separation, dose delivery per actuation).
The table below represents physical stability of the composition 2 according to the invention at 5° C. and room temperature (RT) during three months.

ivermectin
Ivermectin solubilized state, crystals formation: remains solubilized over time, no crystals formation
